Experimental data: US10961200B2, “Small molecule inhibitors of lactate dehydrogenase and methods of use thereof” (THE UNITED STATES OF AMERICA, AS REPRESENTED BY THE …, priority 2014, dated 2021)

Experiments:
[1] = oral pharmacokinetics in male CD1 mice (plasma, LC/MS/MS); assay type: in vivo; settings: oral 10 mg/kg; for F: fraction of the dose that enters systemic circulation
Human LDHA = Human LDHA (Homo sapiens (Human), UniProt P00338); test: human LDHA primary biochemical assay (resazurin/diaphorase coupled, fluorescence); settings: LDHA inhibitory activity, activity level based on IC50 (Table 7)
Source text: Test compounds were placed in a Greiner Bio-One (Monroe, N.C.) 1536-well black solid bottom assay plate. 200 millimolar (mM) Tris HCl, pH 7.4, 100 micromolar […] EDTA and 0.01% TWEEN-20™, final concentration, was used as the assay buffer. The LDHA reagent was 2 nanomolar (nM) Human LDHA (Meridian Life Science, Inc., Memphis, Tenn.), final concentration, in assay buffer.

MiaPaCa2 cells = test: cell-based HT lactate assay, colorimetric/fluorometric detection (inhibition of lactate production); settings: Homo sapiens, MIA PaCa-2; class symbols, 0 to 3 pluses

Row | IC50 (Human LDHA) | IC50 (MiaPaCa2 cells) | SMILES | AUC(0-t) ([1]; mouse, plasma) | Cmax ([1]; mouse, plasma) | F [1]
1 | – | – | NS(=O)(=O)c1ccc(Cc2c(-c3cccc(-c4ccccc4)c3)nn(-c3nc(C(=O)O)cs3)c2C(F)(F)F)cc1 [Compound 42, 2-(3-([1,1′-biphenyl]-3-yl)-4-(4-sulfamoylbenzyl)-5-(trifluoromethyl)-1H-pyrazol-1-yl)thiazole-4-carboxylic acid] | 1210 ng·h/mL | 159 ng/mL | 34%
2 | – | – | CCOC(=O)c1csc(-n2nc(-c3cccc(-c4ccccc4)c3)c(Cc3ccc(S(N)(=O)=O)cc3)c2C(F)(F)F)n1 [Compound 141, ethyl 2-(3-([1,1′-bipheny]-3-yl)-4-(4-sulfamoylbenzyl)-5-(trifluoromethyl)-1H-pyrazol-1-yl)thiazole-4-carboxylate] | – | – | 69%
3 | < 0.1 µM | 1 to 10 µM | NS(=O)(=O)c1ccc(Cc2c(-c3cccc(Oc4ccc(C(F)(F)F)cc4)c3)nn(-c3nc(C(=O)O)cs3)c2CC2CC2)cc1 [Compound 481, 2-(5-(cyclopropylmethyl)-4-(4-sulfamoylbenzyl)-3-(3-(4-(trifluoromethyl)phenoxy)-phenyl)-1H-pyrazol-1-yl)thiazole-4-carboxylic Acid] | – | – | –
4 | < 0.1 µM | 1 to 10 µM | NS(=O)(=O)c1ccc(Cc2c(-c3cccc(OCc4ccccc4)c3)nn(-c3nc(C(=O)O)cs3)c2C2CC2)cc1 [Compound 501, 2-(3-(3-(benzyloxy)phenyl)-5-cyclopropyl-4-(4-sulfamoylbenzyl)-1H-pyrazol-1-yl)thiazole-4-carboxylic acid] | – | – | –
5 | < 0.1 µM | 1 to 10 µM | NS(=O)(=O)c1ccc(Cc2c(-c3cccc(Oc4ccccc4)c3)nn(-c3nc(C(=O)O)cs3)c2C2CC2)cc1 [Compound 502, 2-(5-cyclopropyl-3-(3-phenoxyphenyl)-4-(4-sulfamoylbenzyl)-1H-pyrazol-1-yl)thiazole-4-carboxylic acid] | – | – | –
6 | < 0.1 µM | 1 to 10 µM | NS(=O)(=O)c1ccc(Cc2c(-c3cccc(Oc4ccccc4)c3)nn(-c3nc(C(=O)O)cs3)c2CC2CC2)cc1 [Compound 503, 2-(5-(cyclopropylmethyl)-3-(3-phenoxyphenyl)-4-(4-sulfamoylbenzyl)-1H-pyrazol-1-yl)thiazole-4-carboxylic Acid] | – | – | –
7 | < 0.1 µM | 1 to 10 µM | Cc1cc(-c2cccc(F)c2)cc(-c2nn(-c3nc(C(=O)O)cs3)c(CC3CC3)c2Cc2ccc(S(N)(=O)=O)cc2)c1 [Compound 505, 2-(5-(cyclopropylmethyl)-3-(3′-fluoro-5-methyl-[1,1′-biphenyl]-3-yl)-4-(4-sulfamoylbenzyl)-1H-pyrazol-1-yl)thiazole-4-carboxylic Acid] | – | – | –
8 | < 0.1 µM | 1 to 10 µM | Cc1cc(-c2ccc(F)cc2)cc(-c2nn(-c3nc(C(=O)O)cs3)c(CC3CC3)c2Cc2ccc(S(N)(=O)=O)cc2)c1 [Compound 506, 2-(5-(cyclopropylmethyl)-3-(4′-fluoro-5-methyl-[1,1′-biphenyl]-3-yl)-4-(4-sulfamoylbenzyl)-1H-pyrazol-1-yl)thiazole-4-carboxylic Acid] | – | – | –
9 | < 0.1 µM | 1 to 10 µM | NS(=O)(=O)c1ccc(Cc2c(-c3cccc(Oc4ccc(F)cc4)c3)nn(-c3nc(C(=O)O)cs3)c2CC2CC2)cc1 [Compound 507, 2-(5-(cyclopropylmethyl)-3-(3-(4-fluorophenoxy)phenyl)-4-(4-sulfamoylbenzyl)-1H-pyrazol-1-yl)thiazole-4-carboxylic Acid] | – | – | –
10 | < 0.1 µM | 1 to 10 µM | NS(=O)(=O)c1ccc(Cc2c(-c3ccc(F)c(Oc4ccccc4)c3)nn(-c3nc(C(=O)O)cs3)c2CC2CC2)cc1 [Compound 508, 2-(5-(cyclopropylmethyl)-3-(4-fluoro-3-phenoxyphenyl)-4-(4-sulfamoylbenzyl)-1H-pyrazol-1-yl)thiazole-4-carboxylic Acid] | – | – | –
11 | < 0.1 µM | < 1 µM | NS(=O)(=O)c1ccc(Cc2c(-c3ccc(F)c(Oc4cccc(F)c4)c3)nn(-c3nc(C(=O)O)cs3)c2CC2CC2)cc1F [Compound 509, 2-(5-(cyclopropylmethyl)-3-(4-fluoro-3-(3-fluorophenoxy)phenyl)-4-(3-fluoro-4-sulfamoylbenzyl)-1H-pyrazol-1-yl)thiazole-4-carboxylic Acid] | – | – | –
12 | < 0.1 µM | < 1 µM | Cc1ccc(Oc2cc(-c3nn(-c4nc(C(=O)O)cs4)c(CC4CC4)c3Cc3ccc(S(N)(=O)=O)c(F)c3)ccc2F)cc1 [Compound 510, 2-(5-(cyclopropylmethyl)-3-(4-fluoro-3-(p-tolyloxy)phenyl)-4-(3-fluoro-4-sulfamoylbenzyl)-1H-pyrazol-1-yl)thiazole-4-carboxylic Acid] | – | – | –
13 | < 0.1 µM | 1 to 10 µM | NS(=O)(=O)c1ccc(Cc2c(-c3ccc(F)c(Oc4ccc(F)cc4)c3)nn(-c3nc(C(=O)O)cs3)c2CC2CC2)cc1F [Compound 511, 2-(5-(cyclopropylmethyl)-3-(4-fluoro-3-(4-fluorophenoxy)phenyl)-4-(3-fluoro-4-sulfamoylbenzyl)-1H-pyrazol-1-yl)thiazole-4-carboxylic Acid] | – | – | –
14 | < 0.1 µM | < 1 µM | NS(=O)(=O)c1ccc(Cc2c(-c3ccc(F)c(Oc4ccc(C(F)(F)F)cc4)c3)nn(-c3nc(C(=O)O)cs3)c2CC2CC2)cc1F [Compound 512, 2-(5-(cyclopropylmethyl)-3-(4-fluoro-3-(4-(trifluoromethyl)phenoxy)phenyl)-4-(3-fluoro-4-sulfamoylbenzyl)-1H-pyrazol-1-yl)thiazole-4-carboxylic Acid] | – | – | –
15 | 0.1 to 1 µM | 1 to 10 µM | NS(=O)(=O)c1ccc(Cc2c(-c3cc(F)cc(-c4cccc(F)c4)c3)nn(-c3nc(C(=O)O)cs3)c2CC2CC2)cc1 [Compound 523, 2-(5-(cyclopropylmethyl)-3-(3′,5-difluoro-[1,1′-biphenyl]-3-yl)-4-(4-sulfamoylbenzyl)-1H-pyrazol-1-yl)thiazole-4-carboxylic acid] | – | – | –
16 | 0.1 to 1 µM | 10 to 57 µM | NS(=O)(=O)c1ccc(Cc2c(-c3cccc(Oc4cccc(F)c4)c3)nn(-c3nc(C(=O)O)cs3)c2CC2CC2)cc1 [Compound 526, 2-(5-(cyclopropylmethyl)-3-(3-(3-fluorophenoxy)phenyl)-4-(4-sulfamoylbenzyl)-1H-pyrazol-1-yl)thiazole-4-carboxylic Acid] | – | – | –
17 | < 0.1 µM | 1 to 10 µM | NS(=O)(=O)c1ccc(Cc2c(-c3ccc(F)c(OCc4ccc(F)cc4)c3)nn(-c3nc(C(=O)O)cs3)c2CC2CC2)cc1 [Compound 527, 2-(5-(cyclopropylmethyl)-3-(4-fluoro-3-((4-fluorobenzyl)oxy)phenyl)-4-(4-sulfamoylbenzyl)-1H-pyrazol-1-yl)thiazole-4-carboxylic Acid] | – | – | –
18 | < 0.1 µM | < 1 µM | NS(=O)(=O)c1ccc(Cc2c(-c3ccc(F)c(OCc4cccc(F)c4)c3)nn(-c3nc(C(=O)O)cs3)c2CC2CC2)cc1F [Compound 528, 2-(5-(cyclopropylmethyl)-3-(4-fluoro-3-((3-fluorobenzyl)oxy)phenyl)-4-(3-fluoro-4-sulfamoylbenzyl)-1H-pyrazol-1-yl)thiazole-4-carboxylic Acid] | – | – | –
19 | < 0.1 µM | 1 to 10 µM | NS(=O)(=O)c1ccc(Cc2c(-c3ccc(F)c(C(F)(F)F)c3)nn(-c3nc(C(=O)O)cs3)c2CC2CC2)cc1F [Compound 542, 2-(5-(cyclopropylmethyl)-3-(4-fluoro-3-(trifluoromethyl)phenyl)-4-(3-fluoro-4-sulfamoylbenzyl)-1H-pyrazol-1-yl)thiazole-4-carboxylic acid] | – | – | –
20 | < 0.1 µM | 1 to 10 µM | CC(C)(C)NC(=O)c1cc(-c2nn(-c3nc(C(=O)O)cs3)c(CC3CC3)c2Cc2ccc(S(N)(=O)=O)c(F)c2)ccc1F [Compound 543, 2-(3-(3-(tert-butylcarbamoyl)-4-fluorophenyl)-5-(cyclopropylmethyl)-4-(3-fluoro-4-sulfamoylbenzyl)-1H-pyrazol-1-yl)thiazole-4-carboxylic acid] | – | – | –
21 | < 0.1 µM | 1 to 10 µM | NS(=O)(=O)c1ccc(Cc2c(-c3ccc(F)c(C(=O)NCc4ccccc4)c3)nn(-c3nc(C(=O)O)cs3)c2CC2CC2)cc1F [Compound 544, 2-(3-(3-(benzylcarbamoyl)-4-fluorophenyl)-5-(cyclopropylmethyl)-4-(3-fluoro-4-sulfamoylbenzyl)-1H-pyrazol-1-yl)thiazole-4-carboxylic acid] | – | – | –
22 | < 0.1 µM | 10 to 57 µM | NS(=O)(=O)c1ccc(Cc2c(-c3ccc(F)c(C(=O)N4CCCC4)c3)nn(-c3nc(C(=O)O)cs3)c2CC2CC2)cc1F [Compound 545, 2-(5-(cyclopropylmethyl)-3-(4-fluoro-3-(pyrrolidine-1-carbonyl)phenyl)-4-(3-fluoro-4-sulfamoylbenzyl)-1H-pyrazol-1-yl)thiazole-4-carboxylic acid] | – | – | –
